Measured values: PMC9817100, “Preclinical profiles of SKB264, a novel anti-TROP2 antibody conjugated to topoisomerase inhibitor, demonstrated promising antitumor efficacy compared to IMMU-132” (Frontiers in Oncology, 2022)

Target: T1, DNA topoisomerase I (Homo sapiens, UniProt P11387)
T1 sequence (P11387 1-765): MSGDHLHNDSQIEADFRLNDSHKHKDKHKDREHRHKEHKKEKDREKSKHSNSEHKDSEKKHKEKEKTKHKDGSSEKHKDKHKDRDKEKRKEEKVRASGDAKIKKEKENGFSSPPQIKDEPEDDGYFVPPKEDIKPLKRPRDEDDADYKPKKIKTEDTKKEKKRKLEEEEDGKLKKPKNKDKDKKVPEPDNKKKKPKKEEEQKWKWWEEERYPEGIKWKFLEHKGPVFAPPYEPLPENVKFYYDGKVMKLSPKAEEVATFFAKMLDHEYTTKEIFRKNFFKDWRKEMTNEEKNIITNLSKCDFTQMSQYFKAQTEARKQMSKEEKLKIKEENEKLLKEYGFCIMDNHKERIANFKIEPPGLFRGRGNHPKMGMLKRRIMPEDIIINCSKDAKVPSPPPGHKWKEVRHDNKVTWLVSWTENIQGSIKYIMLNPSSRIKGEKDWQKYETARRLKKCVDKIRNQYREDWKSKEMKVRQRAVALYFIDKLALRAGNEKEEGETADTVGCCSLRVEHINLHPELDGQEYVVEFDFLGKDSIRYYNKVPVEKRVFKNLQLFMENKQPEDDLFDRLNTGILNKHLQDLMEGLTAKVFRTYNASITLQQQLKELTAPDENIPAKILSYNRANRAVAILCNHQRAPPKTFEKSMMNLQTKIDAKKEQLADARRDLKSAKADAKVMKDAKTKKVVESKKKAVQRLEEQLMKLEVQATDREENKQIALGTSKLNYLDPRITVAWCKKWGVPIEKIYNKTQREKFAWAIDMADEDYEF
Assay: topoisomerase I-mediated DNA relaxation assay (cell-free)
Assay type: biochemical
Conditions: read-out: DNA topoisomerase I inhibition (IC50)
Description: SKB264 is a TROP2-targeting ADC, which consists of a recombinant humanized anti-TROP2 antibody and a topoisomerase I inhibitor derived from Belotecan (KL610023), integrated together via a sulfonyl pyrimidine-CL2A-carbonate linker. The payload is conjugated with the antibody through irreversible nucleophilic aromatic substitution by tris (2-carboxyethyl) phosphine hydrochloride (TCEP HCl), a reducing agent that can reduce the interchain disulfide bounds. The drug-to-antibody ratio (DAR) of SKB264 was approximately 7.4, which was determined by the reversed-phase chromatography (RPC), and might be the theoretical maximum drug loading number for conventional interchain cysteine conjugation ( Figure 1B ). SKB264 was designed to release payload KL610023 after internalization by TROP2-expressing tumor cells. The inhibitory effect of KL610023 on topoisomerase I was almost similar to that of SN-38, as measured by a topoisomerase I-mediated DNA relaxation assay ( Figure 1C ).
Figure 1 Structure and characterization of SKB264. […] (B) The distribution of the conjugated drug determined by the reverse-phase chromatography analysis (L-0: Unconjugated light chain, L-1: Light chain conjugated with one payload, H-0: Unconjugated heavy chain, H-1: Heavy chain conjugated with one payload, H-2: Heavy chain conjugated with two payloads, H-3: Heavy chain conjugated with three payloads). […]

Compound `CC[C@@]1(O)C(=O)OCc2c1cc1n(c2=O)Cc2c-1nc1ccccc1c2CCN(C(C)C)S(C)(=O)=O` [KL610023] has an IC50 of 0.7 µM.
